Like-named read-outs stand apart in the source and are kept apart here.
How the values were obtained:
[1] = target: purified human recombinant ATM (ataxia telangiectasia mutated), full length (Homo sapiens (Human), UniProt Q13315); assay: ATM kinase assay - determination of ATM inhibition (IC50 ATM), TR-FRET; format: biochemical
In short: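 Full-length enzyme, expressed in a mammalian cell line, pre-incubated 15 min with inhibitor in 25 mM HEPES pH 8.0, 10 mM Mg(CH3COO)2, 1 mM MnCl2, 0,1% BSA, 0,01% Brij 35, 5 mM DTT. Full-length cmyc-p53 (Sf21-expressed) and ATP then added, 30-35 min at 22° C. EDTA stop; p53 S15 phosphorylation read by TR-FRET antibodies.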

[2] = target: PI3K p110δ/p85α (human) (Homo sapiens (Human), UniProt O00329); assay: PI3K p110δ/p85α (human), non-radioactive assay (HTRF); format: biochemical; conditions: read-out: IC50 (PI3Kdelta)
[3] = target: PI3K p110β/p85α (human) (Homo sapiens (Human), UniProt P42338); assay: PI3K p110β/p85α (human), non-radioactive assay (HTRF); format: biochemical; conditions: read-out: IC50 (PI3Kbeta)
Experimental: PI3K p110β/p85α (Human), Non-radioactive Assay
PI3K p110β/p85α (human) was incubated in an assay buffer comprising 10 μM phosphati-dylinositol 4,5-bisphosphate and MgATP (concentration as necessary). The reaction was initiated by addition of MgATP solution. After an incubation time of 30 min at room temperature, the reaction was stopped by addition of a solution consisting of EDTA and biotinylated phosphatidylinositol 3,4,5-trisphosphate. Finally, the detection buffer, consisting of a europium-labelled anti-GST monoclonal antibody, a GST-labelled GRP1 PH domain and streptavidin allophycocyanin, was added. The plate was read out via homogeneous time-resolved fluorescence (HTRF) and the corresponding signals were evaluated via the formula HTRF=10000×(Em665nm/Em620nm).

[4] = target: PI3K p110α/p85α (human) (Homo sapiens (Human), UniProt P42336); assay: PI3K p110α/p85α (human), non-radioactive assay (HTRF); format: biochemical; conditions: read-out: IC50 (PI3Kalpha)
[5] = target: mTOR (human) (Homo sapiens (Human), UniProt P42345); assay: mTOR (human) kinase assay, [γ-33P-ATP] filter assay; format: biochemical
Experimental: Furthermore, the effect, in particular inhibition, of other kinases and thus the selectivity of the compounds according to the invention can be determined with the aid of the following assay:
mTOR (human) was incubated with 50 mM HEPES pH 7.5, 1 mM EGTA, 0.01% Tween 20, 2 mg/ml of the substrate, 3 mM MnCl2 and [γ-^33P-ATP] (specific activity approximately 500 cpm/pmol, concentration as necessary). The reaction was initiated by addition of MgATP solution. After incubation at room temperature for 40 minutes, the reaction was stopped by addition of 3% phosphoric acid. 10 μl of the reaction solution were then transferred dropwise onto a P30 filtermat and washed three times for 5 min in 75 mM phosphoric acid and once in methanol, dried and evaluated by means of liquid scintillation counting.

[6] = tested on: phosphorylation of CHK2 (phospho-Thr68) in HCT116 cells; assay: Cellular pCHK2 assay: bleomycin-induced phosphorylation of CHK2 (phospho-Thr68), immunofluorescence high-content analysis; format: cell-based, human; conditions: Homo sapiens, HCT-116, 4 h, read-out: IC50 (pCHK2)
In short: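 HCT116 cells in DMEM with 10% FCS, incubated overnight at 37° C, then given compounds (1 nM to 30 μM, 0.5% DMSO) together with 10 μM bleomycin. Phospho-Thr68 CHK2 immunostained and imaged by high-content imager; nuclei with pCHK2 above background counted, cell count from propidium iodide DNA stain.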

[7] = target: PI3K (p120γ) (human) (Homo sapiens (Human), UniProt P48736); assay: PI3K (p120γ) (human), non-radioactive assay (HTRF); format: biochemical; conditions: read-out: IC50 (PI3Kgamma)
Sequence of PI3K (p120γ) (human) (P48736 whole entry, the tested form may be a part): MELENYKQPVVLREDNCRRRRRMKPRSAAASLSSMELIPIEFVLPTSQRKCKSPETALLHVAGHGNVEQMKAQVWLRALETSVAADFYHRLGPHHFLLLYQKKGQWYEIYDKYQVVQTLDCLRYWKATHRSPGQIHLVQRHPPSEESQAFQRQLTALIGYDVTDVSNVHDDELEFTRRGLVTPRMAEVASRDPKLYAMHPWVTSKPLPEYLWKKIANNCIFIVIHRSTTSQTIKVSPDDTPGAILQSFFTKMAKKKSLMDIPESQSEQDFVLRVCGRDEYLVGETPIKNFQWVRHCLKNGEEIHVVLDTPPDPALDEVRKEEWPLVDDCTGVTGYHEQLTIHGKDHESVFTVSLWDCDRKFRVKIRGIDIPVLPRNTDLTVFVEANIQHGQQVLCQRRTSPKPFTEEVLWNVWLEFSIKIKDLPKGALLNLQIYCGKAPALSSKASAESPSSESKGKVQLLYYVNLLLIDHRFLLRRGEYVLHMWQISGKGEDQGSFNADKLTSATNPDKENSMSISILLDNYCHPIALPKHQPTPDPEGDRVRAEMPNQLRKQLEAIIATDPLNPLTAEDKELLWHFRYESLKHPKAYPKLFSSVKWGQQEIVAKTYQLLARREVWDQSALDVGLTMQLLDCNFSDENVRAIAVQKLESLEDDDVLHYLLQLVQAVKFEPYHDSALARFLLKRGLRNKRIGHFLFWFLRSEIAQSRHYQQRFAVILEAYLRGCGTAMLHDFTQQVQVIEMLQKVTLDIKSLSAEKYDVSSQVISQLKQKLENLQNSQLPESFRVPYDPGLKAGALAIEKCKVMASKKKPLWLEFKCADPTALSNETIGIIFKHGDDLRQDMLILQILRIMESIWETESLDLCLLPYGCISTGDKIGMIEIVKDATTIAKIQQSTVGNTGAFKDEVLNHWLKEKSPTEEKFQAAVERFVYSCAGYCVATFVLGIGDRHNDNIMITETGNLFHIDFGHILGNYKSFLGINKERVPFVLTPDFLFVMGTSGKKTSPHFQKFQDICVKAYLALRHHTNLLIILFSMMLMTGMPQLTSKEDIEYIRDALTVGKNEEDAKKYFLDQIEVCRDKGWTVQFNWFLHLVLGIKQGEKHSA
In short: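 Enzyme was run with 10 μM phosphatidylinositol 4,5-bisphosphate, starting the reaction with MgATP at an unspecified level, for 30 min at room temperature. The stop used EDTA plus biotinylated PIP3, and detection used Eu-anti-GST, GST-GRP1 PH domain and streptavidin-APC. Signal was taken as HTRF = 10000×(Em665nm/Em620nm).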

Sequence of purified human recombinant ATM (ataxia telangiectasia mutated), full length (Q13315 whole entry, change not shown): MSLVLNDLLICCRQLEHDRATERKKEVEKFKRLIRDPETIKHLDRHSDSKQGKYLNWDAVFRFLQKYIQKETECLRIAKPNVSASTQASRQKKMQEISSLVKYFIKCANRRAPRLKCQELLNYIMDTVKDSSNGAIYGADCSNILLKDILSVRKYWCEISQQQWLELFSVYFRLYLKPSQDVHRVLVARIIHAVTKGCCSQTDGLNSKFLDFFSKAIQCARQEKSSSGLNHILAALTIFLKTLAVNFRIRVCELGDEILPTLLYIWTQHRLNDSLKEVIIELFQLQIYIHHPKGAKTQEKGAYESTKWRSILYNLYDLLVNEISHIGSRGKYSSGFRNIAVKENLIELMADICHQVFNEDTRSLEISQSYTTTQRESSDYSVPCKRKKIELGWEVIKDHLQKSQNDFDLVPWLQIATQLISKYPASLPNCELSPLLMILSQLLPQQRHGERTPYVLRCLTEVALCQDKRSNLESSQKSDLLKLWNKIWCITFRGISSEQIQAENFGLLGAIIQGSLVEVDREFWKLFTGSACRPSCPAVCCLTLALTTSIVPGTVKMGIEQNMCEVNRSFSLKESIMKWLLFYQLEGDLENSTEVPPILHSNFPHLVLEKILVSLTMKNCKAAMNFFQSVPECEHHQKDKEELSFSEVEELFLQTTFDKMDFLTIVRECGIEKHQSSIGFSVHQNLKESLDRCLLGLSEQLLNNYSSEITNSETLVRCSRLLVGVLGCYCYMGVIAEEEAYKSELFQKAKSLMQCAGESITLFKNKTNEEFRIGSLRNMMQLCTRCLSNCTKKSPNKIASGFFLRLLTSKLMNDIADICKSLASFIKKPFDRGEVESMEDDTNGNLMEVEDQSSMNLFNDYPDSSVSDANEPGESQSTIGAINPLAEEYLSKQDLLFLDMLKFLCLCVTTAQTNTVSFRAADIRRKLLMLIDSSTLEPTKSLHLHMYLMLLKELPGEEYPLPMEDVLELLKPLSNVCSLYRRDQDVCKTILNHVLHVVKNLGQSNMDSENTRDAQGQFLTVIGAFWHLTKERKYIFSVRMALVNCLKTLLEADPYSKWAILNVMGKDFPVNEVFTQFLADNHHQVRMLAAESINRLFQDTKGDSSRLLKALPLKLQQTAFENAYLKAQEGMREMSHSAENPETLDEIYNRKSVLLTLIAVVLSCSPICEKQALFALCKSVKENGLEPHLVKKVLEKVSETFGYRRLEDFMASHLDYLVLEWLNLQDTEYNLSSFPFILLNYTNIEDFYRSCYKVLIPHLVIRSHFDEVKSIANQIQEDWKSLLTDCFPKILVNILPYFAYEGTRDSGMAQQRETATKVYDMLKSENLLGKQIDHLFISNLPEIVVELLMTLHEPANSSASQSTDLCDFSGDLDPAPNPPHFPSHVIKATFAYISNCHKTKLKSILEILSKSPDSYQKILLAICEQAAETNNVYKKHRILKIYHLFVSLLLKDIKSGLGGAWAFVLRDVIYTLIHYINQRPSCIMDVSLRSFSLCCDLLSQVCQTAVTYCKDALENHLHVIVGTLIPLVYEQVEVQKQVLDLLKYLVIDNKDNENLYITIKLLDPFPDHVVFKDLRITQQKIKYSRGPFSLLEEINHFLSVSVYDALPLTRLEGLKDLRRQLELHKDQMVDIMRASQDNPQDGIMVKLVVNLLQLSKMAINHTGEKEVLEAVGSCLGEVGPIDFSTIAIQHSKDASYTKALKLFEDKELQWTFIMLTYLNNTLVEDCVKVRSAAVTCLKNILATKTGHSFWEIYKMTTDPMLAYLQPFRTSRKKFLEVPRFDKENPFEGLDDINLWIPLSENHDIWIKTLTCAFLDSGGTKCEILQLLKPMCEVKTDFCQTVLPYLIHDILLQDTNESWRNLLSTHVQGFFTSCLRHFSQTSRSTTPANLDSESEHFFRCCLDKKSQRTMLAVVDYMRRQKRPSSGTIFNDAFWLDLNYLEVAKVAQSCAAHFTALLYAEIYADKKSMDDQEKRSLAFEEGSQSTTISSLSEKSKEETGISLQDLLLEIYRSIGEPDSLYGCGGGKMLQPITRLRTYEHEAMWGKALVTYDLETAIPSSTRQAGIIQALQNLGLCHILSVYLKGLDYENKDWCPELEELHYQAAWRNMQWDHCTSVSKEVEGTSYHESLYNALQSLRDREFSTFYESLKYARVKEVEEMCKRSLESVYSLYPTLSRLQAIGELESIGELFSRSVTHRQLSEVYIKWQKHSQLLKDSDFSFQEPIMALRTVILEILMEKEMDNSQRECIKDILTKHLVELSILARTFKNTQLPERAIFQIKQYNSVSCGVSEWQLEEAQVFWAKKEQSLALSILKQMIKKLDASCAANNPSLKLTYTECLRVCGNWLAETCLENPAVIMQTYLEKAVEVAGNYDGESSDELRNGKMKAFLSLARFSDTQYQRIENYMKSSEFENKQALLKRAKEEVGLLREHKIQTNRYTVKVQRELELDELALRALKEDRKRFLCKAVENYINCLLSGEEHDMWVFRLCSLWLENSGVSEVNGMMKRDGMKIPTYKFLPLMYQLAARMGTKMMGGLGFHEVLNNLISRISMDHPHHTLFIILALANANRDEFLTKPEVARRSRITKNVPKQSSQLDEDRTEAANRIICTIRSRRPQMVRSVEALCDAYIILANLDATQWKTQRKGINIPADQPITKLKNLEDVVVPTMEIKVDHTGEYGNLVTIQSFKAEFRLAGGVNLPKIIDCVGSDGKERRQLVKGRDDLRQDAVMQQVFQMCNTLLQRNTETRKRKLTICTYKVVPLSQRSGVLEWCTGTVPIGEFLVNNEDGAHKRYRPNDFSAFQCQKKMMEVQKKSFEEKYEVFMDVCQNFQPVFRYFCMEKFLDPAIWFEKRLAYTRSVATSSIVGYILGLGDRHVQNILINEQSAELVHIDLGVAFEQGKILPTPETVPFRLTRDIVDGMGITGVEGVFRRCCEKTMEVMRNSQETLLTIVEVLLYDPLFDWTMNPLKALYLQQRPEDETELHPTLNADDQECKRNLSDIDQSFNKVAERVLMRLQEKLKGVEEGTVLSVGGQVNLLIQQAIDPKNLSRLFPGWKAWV

SMILES | IC50 [1] [µM] | IC50 ([1]; 10 μM ATP, substrate p53) [µM] | IC50 [2] [µM] | IC50 [3] [µM] | IC50 [4] [µM] | IC50 [5] [µM] | IC50 [6] [µM] | IC50 [7] [µM]
COc1cc2ncc3c(c2cc1-c1cnn(C)c1)n(-c1cn(C)nc1C)c(=O)n3C [Compound Example 5, 1-(1,3-Dimethyl-1H-pyrazol-4-yl)-7-methoxy-3-methyl-8-(1-methyl-1H-pyrazol-4-yl)-1,3-dihydroimidazo[4,5-c]-quinolin-2-one] | < 0.001 | < 0.001 | > 30 | > 30 | > 30 | > 30 | < 0.2 | > 30
COc1cc2ncc3c(c2cc1-c1cn[nH]c1)n(-c1ncccc1F)c(=O)n3C [Compound Example 7, 1-(3-Fluoropyridin-2-yl)-7-methoxy-3-methyl-8-(1H-pyrazol-4-yl)-1,3-dihydro-imidazo[4,5-c]quinolin-2-one] | < 0.001 | < 0.001 | > 30 | > 30 | > 30 | > 30 | < 0.2 | > 30
COc1cc2ncc3c(c2cc1-c1cn[nH]c1)n(-c1c(C)cncc1F)c(=O)n3C [Compound Example 8, 1-(3-Fluoro-5-methylpyridin-4-yl)-7-methoxy-3-methyl-8-(1H-pyrazol-4-yl)-1,3-dihydroimidazo[4,5-c] quinolin-2-one] | < 0.001 | < 0.001 | > 30 | > 30 | > 30 | > 5 | < 0.2 | > 30
COc1cc2ncc3c(c2cc1-c1cn[nH]c1)n(-c1ccncc1F)c(=O)n3C [Compound Example 9, 1-(3-Fluoropyridin-4-yl)-7-methoxy-3-methyl-8-(1H-pyrazol-4-yl)-1,3-dihydro-imidazo[4,5-c]quinolin-2-one] | < 0.001 | < 0.001 | > 30 | > 30 | > 30 | > 10 | < 0.2 | > 30
COc1cc2ncc3c(c2cc1-c1cn(C)nc1C)n(-c1cn(C)nc1C)c(=O)n3C [Compound Example 10, 1,8-Bis-(1,3-dimethyl-1H-pyrazol-4-yl)-7-methoxy-3-methyl-1,3-dihydroimidazo-[4,5-c]quinolin-2-one] | < 0.001 | < 0.001 | > 30 | > 30 | > 30 | > 30 | < 0.2 | > 30
COc1cc2ncc3c(c2cc1-c1cn(C)nc1C)n(-c1ncc(F)cc1F)c(=O)n3C [Compound Example 11, 1-(3,5-Difluoropyridin-2-yl)-8-(1,3-dimethyl-1H-pyrazol-4-yl)-7-methoxy-3-methyl-1,3-dihydroimidazo[4,5-c]-quinolin-2-one] | < 0.001 | < 0.001 | > 30 | > 30 | > 30 | > 30 | < 0.2 | > 30
CCc1cncc(F)c1-n1c(=O)n(C)c2cnc3cc(OC)c(-c4cnn(C)c4)cc3c21 [Compound Example 12, 1-(3-Ethyl-5-fluoropyridin-4-yl)-7-methoxy-3-methyl-8-(1-methyl-1H-pyrazol-4-yl)-1,3-dihydroimidazo[4,5-c]-quinolin-2-one] | < 0.001 | < 0.001 | > 30 | > 30 | > 30 | > 30 | < 0.2 | > 30
COc1cc2ncc3c(c2cc1-c1cnn(C)c1)n(-c1ncccc1F)c(=O)n3C [Compound Example 14, 1-(3-Fluoropyridin-2-yl)-7-methoxy-3-methyl-8-(1-methyl-1H-pyrazol-4-yl)-1,3-dihydroimidazo[4,5-c]-quinolin-2-one] | < 0.001 | < 0.001 | > 30 | > 30 | > 30 | > 30 | < 0.2 | > 30
COc1cc2ncc3c(c2cc1-c1cnn(C)c1)n(-c1c(F)cncc1OC)c(=O)n3C [Compound Example 15, 1-(3-Fluoro-5-methoxypyridin-4-yl)-7-methoxy-3-methyl-8-(1-methyl-1H-pyrazol-4-yl)-1,3-dihydroimidazo[4,5-c]-quinolin-2-one] | < 0.001 | < 0.001 | > 30 | > 30 | > 30 | > 30 | < 0.2 | > 30
COc1cc2ncc3c(c2cc1-c1cn(C)nc1C)n(-c1ncccc1F)c(=O)n3C [Compound Example 16, 8-(1,3-Dimethyl-1H-pyrazol-4-yl)-1-(3-fluoropyridin-2-yl)-7-methoxy-3-methyl-1,3-dihydroimidazo[4,5-c] quinolin-2-one] | < 0.001 | < 0.001 | > 30 | > 30 | > 30 | > 30 | < 0.2 | > 30
COc1cc2ncc3c(c2cc1-c1cn[nH]c1)n(-c1cnn(C)c1)c(=O)n3C [Compound Example 17, 7-Methoxy-3-methyl-1-(1-methyl-1H-pyrazol-4-yl)-8-(1H-pyrazol-4-yl)-1,3-dihydroimidazo[4,5-c] quinolin-2-one] | < 0.01 | < 0.001 | > 30 | > 30 | > 30 | > 10 | < 0.2 | > 30
COc1cc2ncc3c(c2cc1-c1cnn(C)c1)n(-c1c(C)cncc1F)c(=O)n3C [Compound Example 18, 1-(3-Fluoro-5-methylpyridin-4-yl)-7-methoxy-3-methyl-8-(1-methyl-1H-pyrazol-4-yl)-1,3-dihydroimidazo[4,5-c] quinolin-2-one] | < 0.001 | < 0.01 | > 30 | > 30 | > 10 | > 5 | < 0.2 | > 5
COc1cc2ncc3c(c2cc1-c1cn[nH]c1)n(-c1ncc(C)cc1F)c(=O)n3C [Compound Example 20, 1-(3-Fluoro-5-methylpyridin-2-yl)-7-methoxy-3-methyl-8-(1H-pyrazol-4-yl)-1,3-dihydroimidazo[4,5-c] quinolin-2-one] | < 0.001 | < 0.001 | > 30 | > 30 | > 30 | > 30 | < 0.2 | > 30
CCn1cc(-c2cc3c(cc2OC)ncc2c3n(-c3cn(C)nc3C)c(=O)n2C)cn1 [Compound Example 21, 1-(1,3-Dimethyl-1H-pyrazol-4-yl)-8-(1-ethyl-1H-pyrazol-4-yl)-7-methoxy-3-methyl-1,3-dihydroimidazo[4,5-c] quinolin-2-one] | < 0.001 | < 0.001 | > 30 | > 30 | > 20 | > 5 | < 0.2 | > 300
COc1cc2ncc3c(c2cc1-c1cnn(C)c1)n(-c1cnn(C)c1)c(=O)n3C [Compound Example 23, 7-Methoxy-3-methyl-1,8-bis-(1-methyl-1H-pyrazol-4-yl)-1,3-dihydroimidazo[4,5-c] quinolin-2-one] | < 0.01 | < 0.01 | > 30 | > 30 | > 20 | > 20 | < 0.2 | > 30

Reference: patent US10457677B2 (priority 2015, dated 2019)
